Results on 13 compounds are retold here after ChEMBL document CHEMBL1125599, “Cholinergic activity of acetylenic imidazoles and related compounds” (J Med Chem, 1991).

The target in assay [1] is Muscarinic acetylcholine receptor. Description: Binding affinity to muscarinic acetylcholine receptor was determined in presence of [3H]QNB radioligand (in vitro). The format is protein assay.
Assay [2] deals with Mus musculus. Kind of assay: ED50 value as cholinergic agonism by measuring lacrimation in mice (in vivo). Type of assay: functional.
The test system of assay [3] is Mus musculus. Kind of assay: ED50 value as cholinergic agonist by measuring tremors in mice (in vivo). The format is functional.
Assay [4] concerns Mus musculus. Description: ED50 value determined as oxotremorine antagonism by measuring salivation in mice (in vivo). Type of assay: functional.
In assay [5] the test system is Mus musculus. Description: ED50 value determined as oxotremorine antagonism by measuring lacrimation in mice (in vivo). Type of assay: functional.
Assay [6] addresses Muscarinic acetylcholine receptor (Rattus norvegicus) (UniProt P08482+P08483+P08485+P08911+P10980). Description: Ratio of Ki value for QNB to that of Ki value for Oxo-M. The format is protein assay.
The target in assay [7] is Muscarinic acetylcholine receptor. Description: Binding affinity to muscarinic acetylcholine receptor was determined in presence of [3H]OXO-M radioligand (in vitro). Type of assay: protein assay.
In assay [8] the test system is Mus musculus. Description: ED50 value as cholinergic agonist by measuring salivation in mice (in vivo). The format is functional.

Take `CC1CCC(=O)N1CC#CCn1ccnc1` (configuration not stated): the Ki was 171 nM in assay [1] and 23 nM in assay [7]. For the same compound, the ED50 was greater than 100 mg/kg in the assay on Mus musculus [2]; greater than 100 mg/kg with Mus musculus [3]; 1.1 mg/kg in the assay with Mus musculus [4]; 0.54 mg/kg in the assay with Mus musculus [5]; greater than 100 mg/kg in the assay with Mus musculus [8]. The Ki ratio in assay [6] was determined as 7.4.
With `Cn1ccn(CC#CCn2ccnc2)c1=O`, the Ki in assay [1] is greater than 10000 nM; in assay [7], 35 nM. For the same compound, the ED50 is 4.4 mg/kg in the assay on Mus musculus [2]; 4.5 mg/kg in the assay on Mus musculus [3]; greater than 100 mg/kg with Mus musculus [4]; greater than 100 mg/kg in the assay on Mus musculus [5]; 3.7 mg/kg in the assay with Mus musculus [8].
In the case of `CN(C)CC#CCN1CCCC1=O`, the inhibition constant (Ki) in assay [1] was 2600 nM; in assay [7], 1.1 nM. In addition, the Ki ratio in assay [6] turned out to be 2360.
For `CC(C#CCn1ccnc1)N1CCCC1=O` (configuration not stated), the Ki was 556 nM in assay [1] and 33.5 nM in assay [7]. Moreover, the ED50 is greater than 100 mg/kg in the assay with Mus musculus [2]; greater than 100 mg/kg with Mus musculus [3]; 3.7 mg/kg in the assay with Mus musculus [4]; 2 mg/kg in the assay with Mus musculus [5]; greater than 100 mg/kg with Mus musculus [8]. Besides, in assay [6], the Ki ratio stood at 17.
On to `CC(C#CCN1CCCC1)N1CCN(C)C1=O` (configuration not stated), for which the Ki in assay [1] came to 130 nM; in assay [7], 13 nM. Further, the ED50 in the assay on Mus musculus [2] is greater than 30 mg/kg; with Mus musculus [3], greater than 30 mg/kg; in the assay on Mus musculus [4], 25 mg/kg; in the assay with Mus musculus [5], 4.5 mg/kg; in the assay on Mus musculus [8] it was greater than 30 mg/kg. For the same compound, the Ki ratio in assay [6] turned out to be 10.
With `CC(=O)N(C)C(C)C#CCn1ccnc1C` (configuration not stated), the Ki was found to be 19 nM in assay [1] and 1.6 nM in assay [7]. Also, the ED50 was greater than 100 mg/kg with Mus musculus [2]; greater than 100 mg/kg with Mus musculus [3]; 0.2 mg/kg in the assay on Mus musculus [4]; 0.05 mg/kg with Mus musculus [5]; greater than 100 mg/kg in the assay with Mus musculus [8]. The Ki ratio in assay [6] is 12.
As for `CN(C)CC#CCn1ccn(C)c1=O`, the Ki in assay [1] is recorded as greater than 10000 nM; in assay [7], 37 nM. For the same compound, the ED50 with Mus musculus [2] is 8 mg/kg; with Mus musculus [3] it was 5.4 mg/kg; in the assay on Mus musculus [4], greater than 100 mg/kg; in the assay with Mus musculus [5], greater than 100 mg/kg; with Mus musculus [8] it was 8 mg/kg.
As to `O=C1CCCN1CC#CCn1ccnc1`, the Ki in assay [1] was 600 nM; in assay [7], 1.3 nM. Moreover, the ED50 was 0.45 mg/kg in the assay on Mus musculus [2]; 0.45 mg/kg in the assay with Mus musculus [3]; greater than 100 mg/kg in the assay with Mus musculus [4]; greater than 100 mg/kg in the assay with Mus musculus [5]; 0.45 mg/kg in the assay with Mus musculus [8]. Besides, the Ki ratio in assay [6] came to 460.
With `COC(=O)N(C)CC#CCn1ccnc1`, the Ki is given as greater than 10000 nM in assay [1] and 10.2 nM in assay [7]. The ED50 with Mus musculus [2] was 4.5 mg/kg; in the assay on Mus musculus [3], 2 mg/kg; in the assay on Mus musculus [4], greater than 100 mg/kg; with Mus musculus [5], greater than 100 mg/kg; in the assay with Mus musculus [8] it was 4.5 mg/kg.
With `O=C1CCCN1CC#CCN1CCCC1` [OXOTREMORINE], the Ki in assay [1] was determined as 193 nM. Besides, the 50% effective dose (ED50) was found to be 0.28 mg/kg with Mus musculus [2] and 0.221 mg/kg in the assay on Mus musculus [8]. The Ki ratio in assay [6] stood at 386.
Regarding `CN(C)CC#CCN1CCNC1=O`, the values for the Ki in assay [1] and in assay [7] were greater than 10000 nM and 43 nM, respectively. For the same compound, the ED50 with Mus musculus [2] was 9.7 mg/kg; in the assay on Mus musculus [3], 9.7 mg/kg; with Mus musculus [4], greater than 100 mg/kg; with Mus musculus [5], greater than 100 mg/kg; in the assay with Mus musculus [8], 9.7 mg/kg.
`CC(=O)N(C)CC#CCn1ccnc1`: the Ki is listed as greater than 10000 nM in assay [1] and 1.92 nM in assay [7]. Moreover, the ED50 is 1.4 mg/kg in the assay with Mus musculus [2]; 0.97 mg/kg with Mus musculus [3]; greater than 100 mg/kg in the assay on Mus musculus [4]; greater than 100 mg/kg in the assay on Mus musculus [5]; 1.4 mg/kg with Mus musculus [8].
With `CC(=O)N(C)C(C)C#CCN1CCCC1` (configuration not stated), the ED50 is 0.66 mg/kg in the assay with Mus musculus [2]; greater than 10 mg/kg with Mus musculus [3]; greater than 10 mg/kg with Mus musculus [4]; greater than 10 mg/kg in the assay with Mus musculus [5]; 0.55 mg/kg with Mus musculus [8].
